These are literature values, as cited in patent publication US8685950B2, “Use of aromatase inhibitors for treatment of ectopic pregnancy” (Wayne State University, priority 2004, dated 2014).

The structures appear in SMILES notation. Where a name gives a salt, the structure may show the parent alone.

For one series, the system named is progesterone production. As to conditions: baboon, early pregnancy.
For series [1] the following is noted: in vivo.
For series [2] the following is noted: baboons; effect reversed by diethylstilbestrol.
The test system of another series is ectopic pregnancy. As to conditions: ectopic pregnancy patients.

`COc1ccc(C2=C(C(=O)c3ccc(OCCN4CCCC4)cc3)c3ccccc3CC2)cc1` [trioxifene mesylate]: in the series with progesterone production, the plasma progesterone entry is recorded as “no such effect was found”. As to `C1=C(c2ccccc2)C(c2ccc(OCCN3CCCCC3)cc2)Oc2ccccc21` (stereo not drawn) [CDRI-85/287], the “amount of estrogen and progesterone receptors” value in the series on primate endometrium is recorded as “decrease the amount of both receptors”. Regarding `CCC1(c2ccc(N)cc2)CCC(=O)NC1=O` (stereo not drawn) [aminoglutethimide], the “patients stopping the treatment because of side effects (lethargy, rashes, nausea, fever)” value in series [1] was 8-15%.

For `CCN(CC)CCOc1ccc(C(O)(Cc2ccc(OC)cc2)c2ccccc2)cc1` (stereo not drawn) [MER-25], the plasma progesterone result in the series on progesterone production was “depression in plasma progesterone”. In the case of `CCN(CC)CCOc1ccc(C(O)(Cc2ccc(OC)cc2)c2ccccc2)cc1` (stereo not drawn) [ethamoxytriphetol], the “placental progesterone formation and serum progesterone concentrations” value in series [2] is on record as “decreased”. As for `CN(Cc1cnc2nc(N)nc(N)c2n1)c1ccc(C(=O)N[C@@H](CCC(=O)O)C(=O)O)cc1` [methotrexate], the “period to resolution of the pregnancy” value with ectopic pregnancy is recorded as “more than three weeks in most patients”.
